In article PMC8467647, “Identification of Small Molecule Inhibitors against Staphylococcus aureus Dihydroorotase via HTS” (International Journal of Molecular Sciences, 2021):

T1: SaDHOase (Staphylococcus aureus, UniProt Q5HGN1)
T1 construct: The full-length SaDHOase was expressed and purified following the cloning of the SaDHO gene; His-SUMO with HRV 3C protease site (N, cleaved yes); made in house; host or cells: E. coli BL21 (DE3)
T1 sequence (Q5HGN1 1-424): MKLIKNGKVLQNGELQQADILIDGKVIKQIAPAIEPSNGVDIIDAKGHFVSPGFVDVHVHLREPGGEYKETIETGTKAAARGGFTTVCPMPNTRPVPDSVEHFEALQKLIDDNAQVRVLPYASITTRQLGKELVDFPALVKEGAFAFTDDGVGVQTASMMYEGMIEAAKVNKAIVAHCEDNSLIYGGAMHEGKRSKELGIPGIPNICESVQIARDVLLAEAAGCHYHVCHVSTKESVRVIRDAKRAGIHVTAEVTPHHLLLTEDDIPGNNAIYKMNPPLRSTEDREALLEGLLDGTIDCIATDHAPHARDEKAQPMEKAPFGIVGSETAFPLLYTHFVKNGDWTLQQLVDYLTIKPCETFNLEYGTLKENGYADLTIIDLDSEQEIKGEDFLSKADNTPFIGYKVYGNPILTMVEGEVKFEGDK

B1: SaDHOase (Staphylococcus aureus subsp. aureus COL) (protein)
chain: T1 sequence (Q5HGN1 1-424)
notes: The full-length SaDHOase was expressed and purified following the cloning of the SaDHO gene; His-SUMO with HRV 3C protease site (N, cleaved yes); made in house; host or cells: E. coli BL21 (DE3)

The molecules below were run against T1, SaDHOase (assay: Competition SPR in the presence of 1 mM substrate Ca-asp). Conditions: KD with 1 mM Ca-asp vs compound alone.
Format: binding
Procedure: (§1) The KD was determined using the response units during the equilibration phase of each concentration of the compound. […] In order to determine the mechanism of action, competition SPR studies were done in the presence of high concentration of the substrate Ca-asp (KM = 110 µM) (Figure 3A). Dose-response curve of the tightest binder (5) is shown as an example (Figure 3C).
(§2) For KD determination of analogs, DHOase was immobilized to flow channels 2, 3 and 4 at levels of 10,160 RU, 12,072 RU and 11,358 RU, respectively. 1 mM Ca-asp was additionally added to the binding buffer for a competition SPR. The sensorgrams were analyzed using BiaEvaluation software 2.0.3. All data was referenced to a blank channel RU signal prior to the fitting. The RU difference at each concentration was measured during the binding equilibration phase, and BiaEvaluation software v2.0.3 was used to fit the data to determine KD values. The RU values and corresponding concentrations were plotted using the single hyperbolic Function (1), where y is the response; ymax is the maximum response, and x is the compound concentration. (1) y=ymax·x/(KD+x)
For `NC1C(=O)Nc2ccc(Br)cc21` (stereo not shown) [Compound 1], the “Weakening of binding affinity in the presence of 1 mM Ca-asp” value was ~ 2.8 fold.

Same assay, conditions: competition SPR, 1 mM Ca-asp
`Cn1c(SCC#N)nc2ccccc2c1=O` [Compound 2] was tested, and the “Effect of substrate Ca-asp on binding (mode of binding)” value was “not affected by Ca-asp presence”.

The molecules below were run on NC(=O)N[C@@H](CC(=O)O)C(=O)O (assay: SaDHOase enzyme activity (substrate KM)). Conditions: other: substrate of SaDHOase.
Format: biochemical, Staphylococcus aureus
Procedure: The full-length SaDHOase was expressed and purified following the cloning of the SaDHO gene according to previously published methods. Purified SaDHOase enzyme activity was measured and confirmed by two methods, one by observing the production of Ca-asp (reverse reaction) at a UV-Vis absorption of 540 nm (TSC-DAMO method) and the other with continuously monitoring reduction of DHO at 230 nm (Figure 1A). Enzyme rates were calculated using the measured slopes, path length of 0.44 cm and the extinction coefficient (ε) of DHO at 230 nm, 1.17 mM^−1 cm^−1 [14].
Work on B1 yielded a Km of 110 µM.

These molecules were tested against T1, SaDHOase (assay: SPR direct binding, steady-state affinity KD determination). Conditions: compound alone, immobilized SaDHOase, 25 °C, steady-state affinity fit.
Procedure: as §1
Purified histidine-tag cleaved DHOase was buffer exchanged to PBS (10 mM phosphate, pH 7.4, 2.7 mM KCl and 137 mM NaCl) for SPR. SPR was performed at 25 °C using a Biacore T200 instrument and a CM5 sensor chip (GE Healthcare). The flow channels were activated by a 1-ethyl-3-(3-dimethylaminopropyl) carbodiimide hydrochloride (EDC)/N-hydroxy succinimide (NHS) mixture. Flow channel 1 was left unmodified as a control. DHOase was diluted in 10 mM sodium acetate (pH 4.0) and immobilized to flow channels 2 and 3 at levels of 8596 RU and 8342 RU, respectively. Fragment solutions at 65 μM and 200 μM were applied to all three channels at a 30 μL/min flow rate. For KD determination, fragment solutions at increasing concentrations (0–400 μM at 2-fold dilution) were applied to all three channels at a 30 μL/min flow rate. The SPR binding buffer was PBS-P supplemented with 2% DMSO and 0.5 mM TCEP. All data was referenced with the blank channel RU values, and the sensorgrams were analyzed using Biacore T200 evaluation software v2.0.3. The response units at each concentration was measured during the equilibration phase for the steady-state affinity fittings.
as §2
Molecule `NC1C(=O)Nc2ccc(Br)cc21` (stereo not shown) [Compound 1] has a Kd of 205 µM. `Cn1c(SCC#N)nc2ccccc2c1=O` [Compound 2] was tested, and the Kd was 98 µM. Work on `Cc1ccccc1CN1CCCN(C)CC1` [Compound 3] yielded a Kd of 156 µM. In the case of `CCNC(=O)N1CCC(N)CC1` [Compound 4], the Kd is reported as 274 µM. For `Cc1ccc(CN2CCC(O)CC2)cc1` [Compound 5], the Kd was 48 µM. In the case of `OC1CCN(Cc2cccc(Cl)c2Cl)CC1` [Compound 6], the Kd is reported as 90 ± 4 µM. `Cc1ccccc1CN1CCC(O)CC1` [Compound 7] showed a Kd of 41 ± 18 µM. `Cc1ccc(C)c(CN2CCC(O)CC2)c1` [Compound 8] was tested, and the Kd was 11 ± 5 µM. For `CCc1ccc(CN2CCC(O)CC2)cc1` [Compound 9], the Kd was 125 ± 20 µM. With `Cc1cccc(CN2CCC(O)CC2)c1` [Compound 10] the KD was “eliminates all bonding” and the Kd was > 400 µM. `OC1CCN(Cc2cccc(C(F)(F)F)c2)CC1` [Compound 11] was tested, and the KD was “eliminates all bonding” and the Kd was > 400 µM. Molecule `OC1CCN(Cc2ccc(C(F)(F)F)cc2)CC1` [Compound 12] has a Kd of 48 ± 24 µM. `Cc1ccc(CN2CCCC(O)C2)c(C)c1` (stereo not shown) [Compound 13] showed a Kd of 77 ± 15 µM. `Cc1cccc(CN2CCCC(CO)C2)c1` (stereo not shown) [Compound 14] showed a Kd of 38 ± 5 µM.
